From PubChem BioAssay (NCI)
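1) Cells in 96-well plates. 2) Compound, 48 h, 5 concentrations. 3) Linear interpolation between surrounding doses. 4) Unreached endpoint = highest concentration. Definition used: TGI = concentration required for complete inhibition of growth.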

Experiments:
Test in all cases: inhibition of tumour cell growth, NCI panel, 48 h
[1] = test system: SK-MEL-28 melanoma
[2] = test system: PC-3 prostate
[3] = test system: M14 melanoma
[4] = test system: A498 renal
[5] = test system: MDA-N
[6] = test system: OVCAR-3 ovarian
[7] = test system: SF-295 CNS
[8] = test system: UACC-257 melanoma
[9] = test system: NCI/ADR-RES ovarian
[10] = test system: IGROV1 ovarian
[11] = test system: TK-10 renal
[12] = test system: OVCAR-5 ovarian
[13] = test system: SR leukemia
[14] = test system: COLO 205 colon
[15] = test system: KM12 colon
[16] = test system: OVCAR-8 ovarian
[17] = test system: SNB-19 CNS
[18] = test system: SW-620 colon
[19] = test system: RXF 393 renal
[20] = test system: HS 578T breast
[21] = test system: EKVX NSCLC
[22] = test system: UACC-62 melanoma
[23] = test system: HL-60(TB) leukemia
[24] = test system: A549 NSCLC
[25] = test system: LOX IMVI melanoma
[26] = test system: ACHN renal
[27] = test system: SNB-75 CNS
[28] = test system: MCF7 breast
[29] = test system: BT-549 breast
[30] = test system: SK-MEL-2 melanoma
[31] = test system: SF-539 CNS
[32] = test system: MDA-MB-231 breast
[33] = test system: RPMI-8226 leukemia
[34] = test system: NCI-H460 lung
[35] = test system: SN12C renal
[36] = test system: HCT-116 colon
[37] = test system: OVCAR-4 ovarian
[38] = test system: MOLT-4 leukemia
[39] = test system: HOP-92 NSCLC
[40] = test system: K-562 leukemia
[41] = test system: HT29 colon
[42] = test system: HOP-62 NSCLC
[43] = test system: MALME-3M melanoma
[44] = test system: SF-268 CNS
[45] = test system: SK-MEL-5 melanoma
[46] = test system: SK-OV-3 ovarian
[47] = test system: T-47D breast
[48] = test system: DU-145 prostate
[49] = test system: NCI-H226 lung
[50] = test system: U251 CNS
[51] = test system: NCI-H522 lung
[52] = test system: UO-31 renal
[53] = test system: NCI-H23 lung
[54] = test system: 786-0 renal
[55] = test system: HCT-15 colon
[56] = test system: CAKI-1 renal
[57] = test system: CCRF-CEM leukemia
[58] = test system: MDA-MB-435
[59] = test system: HCC-2998 colon

Question: Which TGI [1] does the source give for `N/C(=N\S(=O)(=O)c1c(C(F)(F)F)cccc1C(F)(F)F)Nc1ccc(Cl)cc1` here?
Answer: > 100 µM

Question: And the TGI [2]?
Answer: 25.6 µM

Question: What about the TGI [3] of the same compound?
Answer: > 100 µM

Question: What about the TGI [4] of the same compound?
Answer: 50.6 µM

Question: What about the TGI [5] of the same compound?
Answer: > 100 µM

Question: And the TGI [6]?
Answer: > 100 µM

Question: What about the TGI [7] of the same compound?
Answer: > 100 µM

Question: And the TGI [8]?
Answer: 47.7 µM

Question: What about the TGI [9] of the same compound?
Answer: 50.1 µM

Question: And the TGI [10]?
Answer: 60.2 µM

Question: What about the TGI [11] of the same compound?
Answer: 65 µM

Question: And the TGI [12]?
Answer: 73.1 µM

Question: And the TGI [13]?
Answer: > 100 µM

Question: What about the TGI [14] of the same compound?
Answer: 33.1 µM

Question: And the TGI [15]?
Answer: > 100 µM

Question: And the TGI [16]?
Answer: 78 µM

Question: What about the TGI [17] of the same compound?
Answer: > 100 µM

Question: What about the TGI [18] of the same compound?
Answer: > 100 µM

Question: And the TGI [19]?
Answer: > 100 µM

Question: What about the TGI [20] of the same compound?
Answer: 68.6 µM

Question: What about the TGI [21] of the same compound?
Answer: 36.2 µM

Question: And the TGI [22]?
Answer: 50.5 µM

Question: What about the TGI [23] of the same compound?
Answer: 51.9 µM

Question: What about the TGI [24] of the same compound?
Answer: > 100 µM

Question: And the TGI [25]?
Answer: 48.1 µM

Question: And the TGI [26]?
Answer: 56 µM

Question: What about the TGI [27] of the same compound?
Answer: > 100 µM

Question: What about the TGI [28] of the same compound?
Answer: > 100 µM

Question: What about the TGI [29] of the same compound?
Answer: 96 µM

Question: And the TGI [30]?
Answer: 29.3 µM

Question: And the TGI [31]?
Answer: > 100 µM

Question: What about the TGI [32] of the same compound?
Answer: 48.6 µM

Question: What about the TGI [33] of the same compound?
Answer: > 100 µM

Question: What about the TGI [34] of the same compound?
Answer: > 100 µM

Question: What about the TGI [35] of the same compound?
Answer: 78.1 µM

Question: And the TGI [36]?
Answer: > 100 µM

Question: And the TGI [37]?
Answer: > 100 µM

Question: What about the TGI [38] of the same compound?
Answer: > 100 µM

Question: What about the TGI [39] of the same compound?
Answer: 43.6 µM

Question: And the TGI [40]?
Answer: > 100 µM

Question: And the TGI [41]?
Answer: > 100 µM

Question: What about the TGI [42] of the same compound?
Answer: > 100 µM

Question: And the TGI [43]?
Answer: 58.4 µM

Question: What about the TGI [44] of the same compound?
Answer: > 100 µM

Question: And the TGI [45]?
Answer: 35.6 µM

Question: What about the TGI [46] of the same compound?
Answer: > 100 µM

Question: And the TGI [47]?
Answer: > 100 µM

Question: And the TGI [48]?
Answer: > 100 µM

Question: And the TGI [49]?
Answer: > 100 µM

Question: And the TGI [50]?
Answer: 36 µM

Question: And the TGI [51]?
Answer: 30.6 µM

Question: And the TGI [52]?
Answer: 6.35 µM

Question: And the TGI [53]?
Answer: 30.8 µM

Question: What about the TGI [54] of the same compound?
Answer: 74.7 µM

Question: And the TGI [55]?
Answer: > 100 µM

Question: Which TGI [1] does the source give for `CC[n+]1[b-](C(C)(C)C)n(/N=C/C(C)(C)C)[b-](C(C)(C)C)[n+]1CC` here?
Answer: > 100 µM

Question: What about the TGI [2] of the same compound?
Answer: > 100 µM

Question: What about the TGI [3] of the same compound?
Answer: > 100 µM

Question: What about the TGI [5] of the same compound?
Answer: > 100 µM

Question: What about the TGI [56] of the same compound?
Answer: > 100 µM

Question: And the TGI [6]?
Answer: > 100 µM

Question: What about the TGI [7] of the same compound?
Answer: > 100 µM

Question: What about the TGI [8] of the same compound?
Answer: > 100 µM

Question: And the TGI [9]?
Answer: > 100 µM

Question: And the TGI [10]?
Answer: > 100 µM

Question: What about the TGI [11] of the same compound?
Answer: > 100 µM

Question: And the TGI [12]?
Answer: > 100 µM

Question: What about the TGI [13] of the same compound?
Answer: > 100 µM

Question: And the TGI [14]?
Answer: > 100 µM

Question: And the TGI [15]?
Answer: > 100 µM

Question: And the TGI [16]?
Answer: > 100 µM

Question: And the TGI [17]?
Answer: > 100 µM

Question: And the TGI [18]?
Answer: > 100 µM

Question: And the TGI [19]?
Answer: > 100 µM

Question: And the TGI [20]?
Answer: > 100 µM

Question: What about the TGI [57] of the same compound?
Answer: > 100 µM

Question: What about the TGI [21] of the same compound?
Answer: > 100 µM

Question: What about the TGI [22] of the same compound?
Answer: > 100 µM

Question: What about the TGI [24] of the same compound?
Answer: > 100 µM

Question: And the TGI [25]?
Answer: > 100 µM

Question: And the TGI [26]?
Answer: > 100 µM

Question: And the TGI [27]?
Answer: > 100 µM

Question: And the TGI [28]?
Answer: > 100 µM

Question: What about the TGI [29] of the same compound?
Answer: > 100 µM

Question: What about the TGI [30] of the same compound?
Answer: > 100 µM

Question: What about the TGI [31] of the same compound?
Answer: > 100 µM

Question: And the TGI [32]?
Answer: > 100 µM

Question: And the TGI [34]?
Answer: > 100 µM

Question: And the TGI [35]?
Answer: > 100 µM

Question: And the TGI [58]?
Answer: > 100 µM

Question: What about the TGI [36] of the same compound?
Answer: > 100 µM

Question: And the TGI [37]?
Answer: > 100 µM

Question: What about the TGI [38] of the same compound?
Answer: > 100 µM

Question: And the TGI [40]?
Answer: > 100 µM

Question: And the TGI [41]?
Answer: > 100 µM

Question: And the TGI [42]?
Answer: > 100 µM

Question: What about the TGI [59] of the same compound?
Answer: > 100 µM

Question: And the TGI [43]?
Answer: > 100 µM

Question: And the TGI [44]?
Answer: > 100 µM

Question: What about the TGI [45] of the same compound?
Answer: > 100 µM

Question: What about the TGI [47] of the same compound?
Answer: > 100 µM

Question: What about the TGI [49] of the same compound?
Answer: > 100 µM

Question: And the TGI [50]?
Answer: > 100 µM

Question: And the TGI [51]?
Answer: > 100 µM

Question: What about the TGI [52] of the same compound?
Answer: > 100 µM

Question: And the TGI [53]?
Answer: > 100 µM

Question: And the TGI [54]?
Answer: > 100 µM

Question: What about the TGI [55] of the same compound?
Answer: > 100 µM
